Test system: Jurkat IL-2 Production
Experiment: Jurkat IL-2 Production Assay
Type: cell-based
Details: Homo sapiens; Jurkat cell (ATCC); PHA 5 μg/mL with 1% FBS, or PMA/Ionomycin with 30% FBS (table does not say which); incubation 18 h~20 h
Experimental: Jurkat IL-2 Production Assay
Cell: Jurkat cell (ATCC) was grown in RPMI 1640 with 10% FBS and 1% penicillin/streptomycin. The cell density was kept at 1.2˜1.8×10^6/mL in culture flask before seeding into culture plate, and the cell density in the plate was 0.5×10^6/[…]/well.
Culture media: RPMI 1640 with 1% FBS or 30% FBS for high serum assay.
Test compound: serial dilution was done in 100% DMSO, and intermediate dilution was done with RPMI 1640 medium with 1% FBS. The DMSO final concentration in culture well was 0.25%.
Stimulant: PHA (Sigma#L9017-10MG) was used for the assay with 1% FBS in culture medium, and added after 10 minutes exposure of cell to compound/DMSO. The PHA final concentration in culture well was 5 μg/mL. PMA (Sigma# P-8139 5MG)/Ionomycin (Sigma# I0634-5MG) was used for the assay with 30% FBS in culture medium, and added at same time point as the 1% FBS culture assay. The final concentration of PMA was 50 ng/mL, and Ionomycin final concentration was 500 ng/mL.
Incubation: at 37° C. with 5% CO2 and 95% humidity for 18 h˜20 h.
IC50: IC50 was calculated with the data analysis software XLfit4, General Pharmacology model 251.

SMILES | IC50 [nM]
COC(=O)c1ccc(-c2cnc3[nH]c(-c4c(F)cccc4F)cc3c2)c(C)c1 [Example 1, 4-[2-(2,6-Difluoro-phenyl)-1H-pyrrolo[2,3-b]pyridin-5-yl]-3-methyl-benzoic acid methyl ester] | 588
COc1ccc(-c2cnc3[nH]c(-c4c(F)cccc4F)cc3c2)c(OC)c1 [Example 2, 2-(2,6-Difluoro-phenyl)-5-(2,4-dimethoxy-phenyl)-1H-pyrrolo[2,3-b]pyridine] | 150
Cc1cc(S(=O)(=O)N(C)C)ccc1-c1cnc2[nH]c(-c3c(F)cccc3F)cc2c1 [Example 3, 4-[2-(2,6-Difluoro-phenyl)-1H-pyrrolo[2,3-b]pyridin-5-yl]-3,N,N-trimethyl-benzenesulfonamide] | 124
CCn1nc(-c2cccnc2)cc1-c1cnc2[nH]c(-c3c(F)cccc3F)cc2c1 [Example 4, 2-(2,6-Difluoro-phenyl)-5-(2-ethyl-5-pyridin-3-yl-2H-pyrazol-3-yl)-1H-pyrrolo[2,3-b]pyridine] | 134
Cc1sc(-c2cccnc2)nc1-c1cnc2[nH]c(-c3c(F)cccc3F)cc2c1 [Example 5, 2-(2,6-Difluoro-phenyl)-5-(5-methyl-2-pyridin-3-yl-thiazol-4-yl)-1H-pyrrolo[2,3-b]pyridine] | 90
Cn1nc(C(F)(F)F)cc1-c1cnc2[nH]c(-c3c(F)cccc3F)cc2c1 [Example 6, 2-(2,6-Difluoro-phenyl)-5-(2-methyl-5-trifluoromethyl-2H-pyrazol-3-yl)-1H-pyrrolo[2,3-b]pyridine] | 113
CCn1nc(C(F)(F)F)cc1-c1cnc2[nH]c(-c3c(F)cccc3F)cc2c1 [Example 7, 2-(2,6-Difluoro-phenyl)-5-(2-ethyl-5-trifluoromethyl-2H-pyrazol-3-yl)-1H-pyrrolo[2,3-b]pyridine] | 54
Cc1sc(-c2ncco2)nc1-c1cnc2[nH]c(-c3c(F)cccc3F)cc2c1 [Example 8, 2-(2,6-Difluoro-phenyl)-5-(5-methyl-2-oxazol-2-yl-thiazol-4-yl)-1H-pyrrolo[2,3-b]pyridine] | 102
CCn1nc(-c2cccnc2)nc1-c1cnc2[nH]c(-c3c(F)cccc3F)cc2c1 [Example 9, 2-(2,6-Difluoro-phenyl)-5-(2-ethyl-5-pyridin-3-yl-2H-[1,2,4]-triazol-3-yl)-1H-pyrrolo[2,3-b]pyridine] | 56
Cn1nc(-c2cccnc2)nc1-c1cnc2[nH]c(-c3c(F)cccc3F)cc2c1 [Example 10, 2-(2,6-Difluoro-phenyl)-5-(2-methyl-5-pyridin-3-yl-2H-[1,2,4]triazol-3-yl)-1H-pyrrolo[2,3-b]pyridine] | 106
CNC(=O)c1cc(C)c(-c2cnc3[nH]c(-c4c(F)cccc4F)cc3c2)cn1 [Example 11, 5-[2-(2,6-Difluoro-phenyl)-1H-pyrrolo[2,3-b]pyridin-5-yl]-4-methyl-pyridine-2-carboxylic acid methylamide] | 242
Cc1cc(C(=O)NCCO)ncc1-c1cnc2[nH]c(-c3c(F)cccc3F)cc2c1 [Example 12, 5-[2-(2,6-Difluoro-phenyl)-1H-pyrrolo[2,3-b]pyridin-5-yl]-4-methyl-pyridine-2-carboxylic acid (2-hydroxy-ethyl)-amide] | 997
CCc1sc(-c2cccnc2)nc1-c1cnc2[nH]c(-c3c(F)cccc3F)cc2c1 [Example 13, 2-(2,6-Difluoro-phenyl)-5-(5-ethyl-2-pyridin-3-yl-thiazol-4-yl)-1H-pyrrolo[2,3-b]pyridine] | 15
Cc1sc(-c2cnccn2)nc1-c1cnc2[nH]c(-c3c(F)cccc3F)cc2c1 [Example 14, 2-(2,6-Difluoro-phenyl)-5-(5-methyl-2-pyrazin-2-yl-thiazol-4-yl)-1H-pyrrolo[2,3-b]pyridine] | 36
Cn1nc(C(F)(F)F)cc1-c1cnc2[nH]c(-c3c(F)cccc3Cl)cc2c1 [Example 15, 2-(2-Chloro-6-fluoro-phenyl)-5-(2-methyl-5-trifluoromethyl-2H-pyrazol-3-yl)-1H-pyrrolo[2,3-b]pyridine] | 53
Cc1cc(S(=O)(=O)N(C)C)ccc1-c1cnc2[nH]c(-c3c(F)cccc3Cl)cc2c1 [Example 16, 4-[2-(2-Chloro-6-fluoro-phenyl)-1H-pyrrolo[2,3-b]pyridin-5-yl]-3,N,N-trimethyl-benzenesulfonamide] | 99

SMILES | IC50 [nM]
CCn1nc(-c2cnccn2)cc1-c1cnc2[nH]c(-c3c(F)cccc3Cl)cc2c1 [Example 17, 2-(2-Chloro-6-fluoro-phenyl)-5-(2-ethyl-5-pyrazin-2-yl-2H-pyrazol-3-yl)-1H-pyrrolo[2,3-b]pyridine] | 15
Cc1sc(-c2cnccn2)nc1-c1cnc2[nH]c(-c3c(F)cccc3Cl)cc2c1 [Example 18, 2-(2-Chloro-6-fluoro-phenyl)-5-(5-methyl-2-pyrazin-2-yl-thiazol-4-yl)-1H-pyrrolo[2,3-b]pyridine] | 39
COc1cc(C#N)ccc1-c1cnc2[nH]c(-c3c(F)cccc3Cl)cc2c1 [Example 19, 4-[2-(2-Chloro-6-fluoro-phenyl)-1H-pyrrolo[2,3-b]pyridin-5-yl]-3-methoxy-benzonitrile] | 35
Cc1cc(S(C)(=O)=O)ncc1-c1cnc2[nH]c(-c3c(F)cccc3Cl)cc2c1 [Example 20, 2-(2-Chloro-6-fluoro-phenyl)-5-(6-methanesulfonyl-4-methyl-pyridin-3-yl)-1H-pyrrolo[2,3-b]pyridine] | 72
CCn1nc(-c2cnccn2)cc1-c1cnc2[nH]c(-c3ccncc3C)cc2c1 [Example 21, 5-(2-Ethyl-5-pyrazin-2-yl-2H-pyrazol-3-yl)-2-(3-methyl-pyridin-4-yl)-1H-pyrrolo[2,3-b]pyridine] | 158
CCn1nc(-c2cccnc2)cc1-c1cnc2[nH]c(-c3ccncc3C)cc2c1 [Example 22, 5-(1-Ethyl-3-(pyridin-3-yl)-1H-pyrazol-5-yl)-2-(3-methylpyridin-4-yl)-1H-pyrrolo[2,3-b]pyridine] | 163
CCn1nc(C(F)(F)F)cc1-c1cnc2[nH]c(-c3ccncc3C)cc2c1 [Example 23, 5-(1-ethyl-3-(trifluoromethyl)-1H-pyrazol-5-yl)-2-(3-methylpyridin-4-yl)-1H-pyrrolo[2,3-b]pyridine] | 145
Cc1cc(S(C)(=O)=O)ncc1-c1cnc2[nH]c(-c3ccncc3C)cc2c1 [Example 24, 5-(4-Methyl-6-(methylsulfonyl)pyridin-3-yl)-2-(3-methylpyridin-4-yl)-1H-pyrrolo[2,3-b]pyridine] | 248
CCn1nc(-c2cnccn2)cc1-c1cnc2[nH]c(-c3cnccc3C)cc2c1 [Example 26, 5-(2-Ethyl-5-pyrazin-2-yl-2H-pyrazol-3-yl)-2-(4-methyl-pyridin-3-yl)-1H-pyrrolo[2,3-b]pyridine] | 428
Cc1cc(S(C)(=O)=O)ncc1-c1cnc2[nH]c(-c3cnccc3C)cc2c1 [Example 27, 5-(4-Methyl-6-(methylsulfonyl)pyridin-3-yl)-2-(4-methylpyridin-3-yl)-1H-pyrrolo[2,3-b]pyridine] | 438
CCn1nc(-c2cccnc2)cc1-c1cnc2[nH]c(-c3cnccc3Cl)cc2c1 [Example 28, 2-(4-chloropyridin-3-yl)-5-(1-ethyl-3-(pyridin-3-yl)-1H-pyrazol-5-yl)-1H-pyrrolo[2,3-b]pyridine] | 185
Cc1cc(S(C)(=O)=O)ncc1-c1cnc2[nH]c(-c3cnccc3Cl)cc2c1 [Example 29, 2-(4-Chloropyridin-3-yl)-5-(4-methyl-6-(methylsulfonyl)pyridin-3-yl)-1H-pyrrolo[2,3-b]pyridine] | 275
CCn1nc(-c2cccnc2)cc1-c1cnc2[nH]c(-c3c(C)noc3C)cc2c1 [Example 30, 2-(3,5-Dimethyl-isoxazol-4-yl)-5-(2-ethyl-5-pyridin-3-yl-2H-pyrazol-3-yl)-1H-pyrrolo[2,3-b]pyridine] | 441
Cc1cc(S(C)(=O)=O)ncc1-c1cnc2[nH]c(C3CCCCC3)cc2c1 [Example 31, 2-cyclohexyl-5-(4-methyl-6-(methylsulfonyl)pyridin-3-yl)-1H-pyrrolo[2,3-b]pyridine] | 107
CCn1nc(-c2cccnc2)cc1-c1cnc2[nH]c(C3CCCCC3)cc2c1 [Example 32, 2-Cyclohexyl-5-(1-ethyl-3-(pyridin-3-yl)-1H-pyrazol-5-yl)-1H-pyrrolo[2,3-b]pyridine] | 108
CCn1nc(-c2cnccn2)cc1-c1cnc2[nH]c(C3CCCCC3)cc2c1 [Example 33, 2-Cyclohexyl-5-(1-ethyl-3-(pyrazin-2-yl)-1H-pyrazol-5-yl)-1H-pyrrolo[2,3-b]pyridine] | 111

Reference: patent US20130158049A1, “7-AZAINDOLE INHIBITORS OF CRAC” (Hoffmann-La Roche Inc., priority 2011, published 2013)
